Structures are written as SMILES.

Test [1] can be described thus: Effect on hypotonic hypoxia (survival time in nitrogen gas containing 1.5 % oxygen), life-prolonging rate (2). To be noted: Mus musculus, po, 100 mg/kg oral, 1 hour before 1.5 % oxygen in nitrogen; untreated group 8 minutes; read-out: Life-prolonging rate (2): increase percent of survival time. Format: in vivo, male mice (dd-strain). The method, then:
b. Effect on hyptonic hypoxia
To male mice (dd-strain) weighting 15 to 22 g were administered orally the present compounds in the dosage of 100 mg/kg, and after one hour, the mice were taken to a closed room, air in which was substituted with nitrogen gas containing 1.5 % oxygen by ventilating the nitrogen gas for 2 minutes. As sending a mixed gas into the room, the time for death was measured. The increase percent of survival time to the average survival time (8 minutes) of the group, to which the present compounds were not administered, is shown in Table II as life-prolonging rate (2).

Test [2] can be described thus: Effect on tissue-toxic hypoxia (survival time after KCN i.p.), life-prolonging rate (1). Format: in vivo, male mice (dd-strain). The following applies: Mus musculus, po, 100 mg/kg oral, 1 hour before KCN 10 mg/kg i.p.; untreated group 140 seconds; read-out: Life-prolonging rate (1): increase percent of survival time.

For `CN(C)CCCNC(=S)Nc1ccncc1`, the ILS at 100 mg/kg amounted to 21% in test [1] and 37% in test [2].
The like results for `OCCCNC(=S)Nc1cccnc1` were, in that order, 100% and 115%.
On to `S=C(NN=Cc1cccnc1)Nc1cccnc1`, for which the ILS at 100 mg/kg in test [1] came out at 114%; in test [2], 135%.
Taken in the same sequence, the figures for `CN(Cc1ccccc1)NC(=S)Nc1ccncc1` were 58% and 156%.
For the compound `CN(C)CCCNC(=S)Nc1cccnc1`, the figures for the ILS at 100 mg/kg in test [1] and in test [2] were 10% and 35%, respectively.
As to `CCN(CC)CCCNC(=S)Nc1cccnc1`, the ILS at 100 mg/kg stood at 11% in test [1] and 28% in test [2].
With `S=C(NCCSCc1ccccc1)Nc1cccnc1`, the ILS at 100 mg/kg amounted to 55% in test [1] and 64% in test [2].
In the case of `OCC(CO)(CO)NC(=S)Nc1cccnc1`, the ILS at 100 mg/kg in test [1] was determined as 59%; in test [2], 61%.
With `CCN(CC)CCNC(=S)Nc1cccnc1`, the figures for the ILS at 100 mg/kg in test [1] and in test [2] were 40% and 89%, respectively.
Turning to `S=C(NNc1ccccc1)Nc1cccnc1`, the ILS at 100 mg/kg in test [1] turned out to be 108%; in test [2] it was 125%.
Take `CC(O)CNC(=S)Nc1cccnc1` (stereo not shown): the ILS at 100 mg/kg in test [1] came to 60%; in test [2], 75%.
Regarding `S=C(Nc1cccnc1)NN1CCN(Cc2ccccc2)CC1`, the values for the ILS at 100 mg/kg in test [1] and in test [2] were 80% and 124%, respectively.
Regarding `S=C(NCCSCc1ccccc1)Nc1ccccn1`, the results for the ILS at 100 mg/kg in test [1] and in test [2] were 65% and 86%, respectively.
As to `COCCCNC(=S)Nc1cccnc1`, the ILS at 100 mg/kg amounted to 25% in test [1] and 35% in test [2].
In the case of `CCN(CC)CCNC(=S)Nc1ccccn1`, the ILS at 100 mg/kg was 16% in test [1] and 20% in test [2].
As to `CC(C)(CO)NC(=S)Nc1cccnc1`, the ILS at 100 mg/kg in test [1] came out at 50%; in test [2], 67%.
With `S=C(NN=Cc1ccccn1)Nc1cccnc1`, the ILS at 100 mg/kg was found to be 81% in test [1] and 92% in test [2].
For `OCCNC(=S)Nc1ccncc1`, the results for the ILS at 100 mg/kg in test [1] and in test [2] were 158% and 242%, respectively.
Consider `O=C(O)CCCNC(=S)Nc1ccccn1`, for which the results for the ILS at 100 mg/kg in test [1] and in test [2] were 53% and 72%, respectively.
The like results for `CN(C)CCNC(=S)Nc1cccnc1` were, in that order, 46% and 61%.
Regarding `O=C(O)CCCNC(=S)Nc1cccnc1`, the ILS at 100 mg/kg in test [1] was 78%; in test [2], 127%.
`CN(C)NC(=S)Nc1cccnc1`: the ILS at 100 mg/kg amounted to 63% in test [1] and 81% in test [2].
As for `S=C(NCCSSCCNC(=S)Nc1cccnc1)Nc1cccnc1`, the ILS at 100 mg/kg in test [1] was determined as 5%; in test [2] it was 30%.

Values taken from patent publication US3992391A, “1,3-Disubstituted thiourea compounds and preparation thereof” (priority 1972, dated 1976).
